PMC10952255, “Solid‐Phase Synthesis and Biological Evaluation of Peptides ADP‐Ribosylated at Histidine” (Angewandte Chemie (Weinheim an Der Bergstrasse, Germany), 2023)
Starred links: 1 amine or outer side, 2 acyl side, 3 side chain; linkers in the order of their positions; H or OH if unused. Non-standard residues stand in square brackets, D forms with d. Residues, ends and D or L forms follow the SMILES beside them. X1 = Nc1ncnc2c1ncn2[C@@H]1O[C@H](COP(=O)(O)OP(=O)(O)OC[C@H]2O[C@H](n3cncc3C[C@H](N[*:1])C(=O)[*:2])[C@H](O)[C@@H]2O)[C@@H](O)[C@H]1O

How the values were obtained:
[1] = quoted without reference; cited from earlier work
[2] = Chemical stability assay (LC-MS based) under acidic, basic and nucleophilic conditions; format: physicochemical
Text: Having prepared ADPr‐His peptides 26–28, we tested their stability under basic and acidic conditions in an LC–MS‐based assay to evaluate their sensitivity for future synthetic and biochemical studies. A selected set of chemically diverse conditions (aqueous acid, aqueous base and a neutral nucleophile) was probed because these are commonly applied in proteomic studies to identify ADP‐ribosylation sites[22] in proteins or during sample preparation.[14, 28] Aqueous solutions of the ADPr peptides with a final concentration of 0.1 M TFA, 0.1 M NaOH or 0.5 M NH2OH were prepared and shaken for 24 h at room temperature. […] In contrast, the NaOH treatment led to some conversion of the N(τ)‐ribosylated histidines 26 and 27 into products with an identical mass (approximately 7 and 11 %, respectively), indicating a slow epimerization of the modified histidine residue in N(τ)‐ribosyl peptides. […]
Figure 5 A) Chemical stability of peptide 28 under basic conditions (NaOH, 0.1 M). […] Peptide degradation was quantified by analyzing the UV‐trace (260 nm) using Xcalibur software. […] Enzymatic turnover of the various peptides was assessed by monitoring AMP release directly (NudT16) or converting released ADPr via NudT5 to AMP. AMP was measured using the AMP‐Glo assay (Promega). Samples are background corrected and normalized to NudT16 activity The data represents mean values±SD measured in triplicates. […]

| Structure (SMILES) | pKa [1] | ADPr-peptide remaining in its original form ([2]; 0.1 M NaOH, after 24 h, LC-MS UV-trace 260 nm) | degradation of the pyrophosphate linkage ([2]; alkaline treatment (0.1 M NaOH), after a week, LC-MS) |
| --- | --- | --- | --- |
| c1c[nH]nn1 [1,2,3‐triazole] | 9.4 | – | – |
| CC(C)C[C@H](NC(=O)CNC(=O)[C@H](C)NC(=O)CNC(=O)[C@H](Cc1cncn1[C@H]1O[C@H](COP(=O)(O)OP(=O)(O)OC[C@H]2O[C@@H](n3cnc4c(N)ncnc43)[C@H](O)[C@@H]2O)[C@@H](O)[C@H]1O)NC(=O)[C@H](Cc1ccccc1)NC(=O)[C@@H](N)[C@@H](C)O)C(=O)N[C@H](C(=O)N[C@H](C(=O)N1CCC[C@H]1C(=O)N[C@H](C(=O)N[C@@H](CC(=O)O)C(=O)N[C@@H](CCCCN)C(=O)O)C(C)C)C(C)C)C(C)C [compound 28] (H-TF[X1]GAGLVVPVDK-OH) | – | approximately 60% | no degradation of the pyrophosphate linkage was observed |
